Reference: ChEMBL document CHEMBL5705888, “Substrate specificity and inhibitors of LRRK2, a protein kinase mutated in Parkinson's disease” (Biochem J, 2009)

Tests used:
[1] = target: Misshapen-like kinase 1 (Homo sapiens) (UniProt Q8N4C8); test: Inhibition of MINK1 (unknown origin) at 1 uM incubated for 30 mins in presence of [gamma-33P]ATP by multidrop micro reagent based assay relative to control
[2] = target: Tyrosine-protein kinase CSK (Homo sapiens) (UniProt P41240); test: Inhibition of CSK (unknown origin) at 1 uM incubated for 30 mins in presence of [gamma-33P]ATP by multidrop micro reagent based assay relative to control
[3] = target: Leucine-rich repeat serine/threonine-protein kinase 2 (Homo sapiens, UniProt Q5S007); test: Inhibition of GST-tagged LRRK2 (1326 to 2527 residues) (unknown origin) using peptide as substrate incubated for 15 mins in presence of ATP by immunoblotting analysis
[4] = target: T1, Interleukin-1 receptor-associated kinase 4 (Homo sapiens) (UniProt Q9NWZ3); test: Activity of IRAK4 (unknown origin) at 1 uM incubated for 30 mins in presence of [gamma-33P]ATP by multidrop micro reagent based assay relative to control
T1 sequence (whole entry): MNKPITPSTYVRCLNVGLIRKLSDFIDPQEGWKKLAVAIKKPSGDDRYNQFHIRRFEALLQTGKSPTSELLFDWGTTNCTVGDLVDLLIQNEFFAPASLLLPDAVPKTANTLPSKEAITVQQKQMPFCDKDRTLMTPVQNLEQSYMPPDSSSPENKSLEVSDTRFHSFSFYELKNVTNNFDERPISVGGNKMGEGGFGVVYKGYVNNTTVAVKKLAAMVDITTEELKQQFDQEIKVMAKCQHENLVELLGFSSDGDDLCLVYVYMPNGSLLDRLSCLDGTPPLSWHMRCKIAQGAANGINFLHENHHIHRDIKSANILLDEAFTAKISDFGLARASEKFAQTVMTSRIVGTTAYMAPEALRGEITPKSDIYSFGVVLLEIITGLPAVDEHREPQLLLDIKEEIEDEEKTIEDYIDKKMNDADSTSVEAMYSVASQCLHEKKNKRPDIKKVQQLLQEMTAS

[5] = target: Serine/threonine-protein kinase N2 (Homo sapiens) (UniProt Q16513); test: Inhibition of PRK2 (unknown origin) at 1 uM incubated for 30 mins in presence of [gamma-33P]ATP by multidrop micro reagent based assay relative to control; values are per cent of control
[6] = target: Maternal embryonic leucine zipper kinase (Homo sapiens) (UniProt Q14680); test: Inhibition of MELK (unknown origin) at 1 uM incubated for 30 mins in presence of [gamma-33P]ATP by multidrop micro reagent based assay relative to control; values are per cent of control
[7] = target: T2, Serine/threonine-protein kinase 3 (Homo sapiens) (UniProt Q13188); test: Inhibition of MST2 (unknown origin) at 1 uM incubated for 30 mins in presence of [gamma-33P]ATP by multidrop micro reagent based assay relative to control; values are per cent of control
T2 sequence (whole entry): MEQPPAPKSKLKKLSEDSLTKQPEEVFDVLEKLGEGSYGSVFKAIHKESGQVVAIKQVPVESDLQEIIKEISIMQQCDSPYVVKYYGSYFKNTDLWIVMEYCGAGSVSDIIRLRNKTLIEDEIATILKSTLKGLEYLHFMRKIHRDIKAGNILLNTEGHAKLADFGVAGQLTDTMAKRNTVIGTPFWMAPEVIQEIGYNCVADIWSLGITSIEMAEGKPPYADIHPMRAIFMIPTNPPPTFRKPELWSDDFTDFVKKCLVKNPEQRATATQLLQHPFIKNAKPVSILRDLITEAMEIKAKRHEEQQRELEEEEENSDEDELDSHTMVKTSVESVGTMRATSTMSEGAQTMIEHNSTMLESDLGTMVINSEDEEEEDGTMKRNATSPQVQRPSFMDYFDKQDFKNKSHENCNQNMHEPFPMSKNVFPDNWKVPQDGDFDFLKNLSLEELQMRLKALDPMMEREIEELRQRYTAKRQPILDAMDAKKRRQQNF

[8] = target: T3, Inhibitor of nuclear factor kappa-B kinase subunit beta (Homo sapiens) (UniProt O14920); test: Inhibition of IKKbeta (unknown origin) at 1 uM incubated for 30 mins in presence of [gamma-33P]ATP by multidrop micro reagent based assay relative to control; values are per cent of control
T3 sequence (whole entry): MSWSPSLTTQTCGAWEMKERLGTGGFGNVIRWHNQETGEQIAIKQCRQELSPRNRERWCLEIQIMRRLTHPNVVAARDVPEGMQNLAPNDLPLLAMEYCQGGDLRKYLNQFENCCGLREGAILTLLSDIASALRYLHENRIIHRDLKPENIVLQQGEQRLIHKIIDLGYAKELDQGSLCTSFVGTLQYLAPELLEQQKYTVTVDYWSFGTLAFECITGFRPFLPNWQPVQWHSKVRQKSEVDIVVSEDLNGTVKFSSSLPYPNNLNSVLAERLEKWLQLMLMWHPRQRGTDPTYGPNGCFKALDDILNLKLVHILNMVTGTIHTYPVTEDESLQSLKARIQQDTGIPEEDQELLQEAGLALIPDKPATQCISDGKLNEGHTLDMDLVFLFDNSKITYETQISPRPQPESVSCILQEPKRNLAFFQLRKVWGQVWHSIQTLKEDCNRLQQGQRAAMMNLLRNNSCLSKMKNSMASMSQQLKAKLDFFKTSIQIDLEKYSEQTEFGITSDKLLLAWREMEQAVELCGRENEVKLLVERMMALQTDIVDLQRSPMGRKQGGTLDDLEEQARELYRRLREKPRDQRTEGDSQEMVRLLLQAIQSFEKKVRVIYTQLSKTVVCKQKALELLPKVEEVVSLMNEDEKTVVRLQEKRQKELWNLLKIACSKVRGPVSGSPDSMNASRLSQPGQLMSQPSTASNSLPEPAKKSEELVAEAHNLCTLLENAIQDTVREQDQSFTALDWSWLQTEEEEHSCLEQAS

[9] = target: Calcium/calmodulin-dependent protein kinase kinase 2 (Homo sapiens) (UniProt Q96RR4); test: Inhibition of CaMKKbeta (unknown origin) at 1 uM incubated for 30 mins in presence of [gamma-33P]ATP by multidrop micro reagent based assay relative to control; values are per cent of control
[10] = target: Mitogen-activated protein kinase 11 (Homo sapiens) (UniProt Q15759); test: Inhibition of p38beta MAPK (unknown origin) at 1 uM incubated for 30 mins in presence of [gamma-33P]ATP by multidrop micro reagent based assay relative to control; values are per cent of control
Chain of Mitogen-activated protein kinase 11 (Homo sapiens) (Q15759 whole entry): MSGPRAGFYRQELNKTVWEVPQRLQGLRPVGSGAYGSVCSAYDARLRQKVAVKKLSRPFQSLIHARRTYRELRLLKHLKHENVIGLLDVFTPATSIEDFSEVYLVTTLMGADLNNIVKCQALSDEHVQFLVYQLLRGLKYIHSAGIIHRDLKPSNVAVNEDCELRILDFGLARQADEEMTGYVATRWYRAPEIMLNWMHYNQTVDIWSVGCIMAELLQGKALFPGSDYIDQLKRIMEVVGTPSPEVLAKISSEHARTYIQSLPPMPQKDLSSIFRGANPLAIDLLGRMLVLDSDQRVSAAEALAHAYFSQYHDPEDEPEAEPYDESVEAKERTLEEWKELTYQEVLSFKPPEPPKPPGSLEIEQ

Chain of Leucine-rich repeat serine/threonine-protein kinase 2 (Q5S007 whole entry, the tested form may be a part): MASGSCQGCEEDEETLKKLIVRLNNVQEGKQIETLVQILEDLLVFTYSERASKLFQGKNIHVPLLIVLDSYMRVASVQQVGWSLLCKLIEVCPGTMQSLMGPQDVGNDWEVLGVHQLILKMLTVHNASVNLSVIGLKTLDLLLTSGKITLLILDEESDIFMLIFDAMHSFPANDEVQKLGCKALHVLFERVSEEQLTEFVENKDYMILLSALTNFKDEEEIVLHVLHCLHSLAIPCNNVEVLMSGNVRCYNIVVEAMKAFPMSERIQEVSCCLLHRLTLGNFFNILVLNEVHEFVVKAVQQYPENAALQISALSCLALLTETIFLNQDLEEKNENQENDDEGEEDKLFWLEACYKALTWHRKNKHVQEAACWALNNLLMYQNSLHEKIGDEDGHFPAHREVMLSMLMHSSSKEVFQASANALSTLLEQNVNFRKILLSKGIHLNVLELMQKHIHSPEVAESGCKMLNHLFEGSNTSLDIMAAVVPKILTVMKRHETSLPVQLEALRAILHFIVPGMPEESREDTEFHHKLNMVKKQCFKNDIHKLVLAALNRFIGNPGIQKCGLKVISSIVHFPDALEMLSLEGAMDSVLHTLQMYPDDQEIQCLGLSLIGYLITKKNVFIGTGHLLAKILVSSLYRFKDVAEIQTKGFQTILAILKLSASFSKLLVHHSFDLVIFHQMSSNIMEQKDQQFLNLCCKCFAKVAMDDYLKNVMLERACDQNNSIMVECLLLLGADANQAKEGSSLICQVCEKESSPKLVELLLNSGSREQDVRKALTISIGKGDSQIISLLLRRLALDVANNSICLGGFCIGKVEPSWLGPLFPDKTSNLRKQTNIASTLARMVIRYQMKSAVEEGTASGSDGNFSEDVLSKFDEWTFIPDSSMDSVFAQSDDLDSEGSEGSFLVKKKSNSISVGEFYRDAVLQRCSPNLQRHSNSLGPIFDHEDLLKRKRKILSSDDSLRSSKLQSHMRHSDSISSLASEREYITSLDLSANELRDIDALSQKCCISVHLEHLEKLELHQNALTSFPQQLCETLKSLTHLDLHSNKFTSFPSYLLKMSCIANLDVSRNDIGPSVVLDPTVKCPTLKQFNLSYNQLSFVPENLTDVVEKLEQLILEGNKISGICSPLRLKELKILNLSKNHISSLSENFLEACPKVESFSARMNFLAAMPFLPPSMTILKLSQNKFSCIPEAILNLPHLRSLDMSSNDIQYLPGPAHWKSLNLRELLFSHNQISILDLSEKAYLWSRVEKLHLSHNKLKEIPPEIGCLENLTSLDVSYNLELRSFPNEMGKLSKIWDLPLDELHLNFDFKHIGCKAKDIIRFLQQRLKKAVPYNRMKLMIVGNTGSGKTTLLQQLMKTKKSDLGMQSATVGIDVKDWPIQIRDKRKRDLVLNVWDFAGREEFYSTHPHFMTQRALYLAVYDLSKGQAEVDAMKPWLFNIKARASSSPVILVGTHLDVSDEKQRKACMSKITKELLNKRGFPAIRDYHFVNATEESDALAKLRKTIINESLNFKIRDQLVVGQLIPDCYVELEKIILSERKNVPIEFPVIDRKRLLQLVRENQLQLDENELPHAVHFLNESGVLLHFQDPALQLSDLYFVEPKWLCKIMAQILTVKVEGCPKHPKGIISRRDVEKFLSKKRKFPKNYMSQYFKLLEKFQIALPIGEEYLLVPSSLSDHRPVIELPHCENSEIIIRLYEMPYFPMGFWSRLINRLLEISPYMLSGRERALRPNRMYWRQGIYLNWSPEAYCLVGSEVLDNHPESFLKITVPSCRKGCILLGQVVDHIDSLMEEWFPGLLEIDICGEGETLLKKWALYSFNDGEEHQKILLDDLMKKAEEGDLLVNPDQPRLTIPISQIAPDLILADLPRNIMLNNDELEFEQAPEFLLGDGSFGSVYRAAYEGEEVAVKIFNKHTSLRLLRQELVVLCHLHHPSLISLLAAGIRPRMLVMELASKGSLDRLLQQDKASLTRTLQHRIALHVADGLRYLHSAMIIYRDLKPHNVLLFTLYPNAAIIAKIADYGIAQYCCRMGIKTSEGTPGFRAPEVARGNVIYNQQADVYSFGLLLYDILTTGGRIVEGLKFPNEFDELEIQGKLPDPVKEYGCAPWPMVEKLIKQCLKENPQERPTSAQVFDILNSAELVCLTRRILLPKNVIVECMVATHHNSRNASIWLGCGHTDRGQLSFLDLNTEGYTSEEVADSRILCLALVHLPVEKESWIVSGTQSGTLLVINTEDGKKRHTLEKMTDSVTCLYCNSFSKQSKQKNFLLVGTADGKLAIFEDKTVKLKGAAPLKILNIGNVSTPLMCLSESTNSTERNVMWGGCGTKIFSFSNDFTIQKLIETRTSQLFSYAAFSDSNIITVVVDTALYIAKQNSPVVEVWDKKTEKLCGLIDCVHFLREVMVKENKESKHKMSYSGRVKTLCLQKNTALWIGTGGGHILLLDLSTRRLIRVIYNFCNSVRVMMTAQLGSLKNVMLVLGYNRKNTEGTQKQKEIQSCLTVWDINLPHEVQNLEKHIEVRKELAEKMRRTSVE
Chain of Maternal embryonic leucine zipper kinase (Homo sapiens) (Q14680 whole entry, looked up): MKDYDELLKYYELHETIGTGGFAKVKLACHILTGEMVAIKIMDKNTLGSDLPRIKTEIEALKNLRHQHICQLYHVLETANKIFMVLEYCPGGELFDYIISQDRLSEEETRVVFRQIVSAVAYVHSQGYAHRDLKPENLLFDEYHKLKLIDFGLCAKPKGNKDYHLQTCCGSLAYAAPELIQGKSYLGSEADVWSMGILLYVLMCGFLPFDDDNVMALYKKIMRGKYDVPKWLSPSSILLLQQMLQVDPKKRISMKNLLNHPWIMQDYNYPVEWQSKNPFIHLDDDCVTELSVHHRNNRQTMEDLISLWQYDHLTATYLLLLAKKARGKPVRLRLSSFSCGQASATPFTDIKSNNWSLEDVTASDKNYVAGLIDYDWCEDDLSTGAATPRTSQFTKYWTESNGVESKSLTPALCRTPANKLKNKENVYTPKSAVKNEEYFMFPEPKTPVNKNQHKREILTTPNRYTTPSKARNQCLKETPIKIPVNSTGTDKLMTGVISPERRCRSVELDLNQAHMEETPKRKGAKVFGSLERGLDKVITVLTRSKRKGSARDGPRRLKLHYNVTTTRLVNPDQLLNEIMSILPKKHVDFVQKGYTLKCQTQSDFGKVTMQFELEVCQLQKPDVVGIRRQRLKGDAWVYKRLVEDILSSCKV
Chain of Calcium/calmodulin-dependent protein kinase kinase 2 (Homo sapiens) (Q96RR4 2-588 limits assumed): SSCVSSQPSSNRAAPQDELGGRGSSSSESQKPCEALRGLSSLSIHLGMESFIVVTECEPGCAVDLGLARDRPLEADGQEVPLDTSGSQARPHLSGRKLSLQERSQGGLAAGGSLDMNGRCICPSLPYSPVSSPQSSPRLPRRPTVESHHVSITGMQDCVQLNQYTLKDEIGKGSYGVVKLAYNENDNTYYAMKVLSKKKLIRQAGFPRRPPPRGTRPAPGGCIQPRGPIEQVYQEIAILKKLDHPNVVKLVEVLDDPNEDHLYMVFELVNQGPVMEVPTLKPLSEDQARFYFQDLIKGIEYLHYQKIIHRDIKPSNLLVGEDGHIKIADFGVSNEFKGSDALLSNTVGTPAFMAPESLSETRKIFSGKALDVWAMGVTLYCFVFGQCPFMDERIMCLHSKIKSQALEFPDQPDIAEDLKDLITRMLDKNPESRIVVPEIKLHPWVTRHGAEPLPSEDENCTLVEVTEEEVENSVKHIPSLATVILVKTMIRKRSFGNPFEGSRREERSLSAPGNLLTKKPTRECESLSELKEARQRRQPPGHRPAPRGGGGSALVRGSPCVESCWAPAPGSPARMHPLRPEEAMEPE
Chain of Serine/threonine-protein kinase N2 (Homo sapiens) (Q16513 whole entry, looked up): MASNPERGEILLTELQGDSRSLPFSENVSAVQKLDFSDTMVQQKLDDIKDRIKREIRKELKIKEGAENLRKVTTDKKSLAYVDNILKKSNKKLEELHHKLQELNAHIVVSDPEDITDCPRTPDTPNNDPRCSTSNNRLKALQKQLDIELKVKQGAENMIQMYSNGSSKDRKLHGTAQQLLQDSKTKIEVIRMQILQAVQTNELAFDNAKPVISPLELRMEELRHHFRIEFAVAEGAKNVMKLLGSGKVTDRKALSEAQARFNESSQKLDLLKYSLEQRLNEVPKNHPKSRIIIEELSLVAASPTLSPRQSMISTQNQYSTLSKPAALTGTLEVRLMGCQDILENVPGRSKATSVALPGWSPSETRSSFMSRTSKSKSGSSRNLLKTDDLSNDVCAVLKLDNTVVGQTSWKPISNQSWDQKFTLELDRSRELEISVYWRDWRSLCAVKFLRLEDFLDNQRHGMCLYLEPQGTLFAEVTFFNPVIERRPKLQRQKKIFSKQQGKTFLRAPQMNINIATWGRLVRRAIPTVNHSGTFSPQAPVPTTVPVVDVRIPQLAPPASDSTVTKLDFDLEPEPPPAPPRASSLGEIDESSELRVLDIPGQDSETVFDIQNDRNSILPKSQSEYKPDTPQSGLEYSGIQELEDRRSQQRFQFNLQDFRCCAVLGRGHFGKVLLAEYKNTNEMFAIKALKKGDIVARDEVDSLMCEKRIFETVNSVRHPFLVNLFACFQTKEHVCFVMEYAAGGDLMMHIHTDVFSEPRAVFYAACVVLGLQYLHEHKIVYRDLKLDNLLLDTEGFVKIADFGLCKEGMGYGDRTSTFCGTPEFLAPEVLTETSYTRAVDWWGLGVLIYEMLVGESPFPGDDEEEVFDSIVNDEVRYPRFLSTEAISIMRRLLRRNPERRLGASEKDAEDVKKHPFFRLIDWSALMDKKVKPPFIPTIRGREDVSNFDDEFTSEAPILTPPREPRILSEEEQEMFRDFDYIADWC

Row | SMILES | residual activity [1] | inhibition [2] | IC50 [3] | residual activity [4] | residual activity [5] | residual activity [6] | residual activity [7] | residual activity [8] | residual activity [9] | residual activity [10]
1 | CCn1c(-c2nonc2N)nc2cnc(Oc3cccc(NC(=O)c4ccc(OCCN5CCOCC5)cc4)c3)cc21 [GSK-269962A] | 70% | 98% | 3.7 µM | 78% | 2% | 44% | 98% | 83% | 98% | 113%
2 | O=S(=O)(c1cccc2cnccc12)N1CCCNCC1 [FASUDIL] | – | – | > 30 µM | – | – | – | – | – | – | –
3 | CCN(CC)CCNC(=O)c1c(C)[nH]c(/C=C2\C(=O)Nc3ccc(F)cc32)c1C | 8% | – | – | – | 81% | 17% | – | – | 39% | –
4 | Cc1cncc2cccc(S(=O)(=O)N3CCCNC[C@@H]3C)c12 | 104% | 101% | 0.244 µM | 102% | 70% | 70% | 41% | 100% | 81% | 107%
5 | CC1=C(C(=O)Nc2cc3cn[nH]c3cc2F)C(c2ccc(C(F)(F)F)cc2)CC(=O)N1 (stereo not given) | 75% | 106% | > 100 µM | 94% | 40% | 83% | 108% | 97% | 100% | 97%
